Source: paper PMC8776337, “Peptides Derived from Vascular Endothelial Growth Factor B Show Potent Binding to Neuropilin‐1” (Chembiochem, 2021)
Several values for one entry are separate records, joined by “and”; a condition that tells them apart may be missing. Equal values may be shown once. Read-outs that look alike come from different tables or passages of the source. Positions of bridges follow the written chain, without caps; N, C: chain ends. Residues, ends and D or L forms follow the SMILES beside them. No end group written: not given here. *: point of attachment. Palmitoyl = CCCCCCCCCCCCCCCC(=O)*; Hpt = not defined here

T1: NRP1‐b1 (Homo sapiens, UniProt O14786)
T1 construct: the immobilized b1 domain of NRP1 (NRP1‐b1); poly-histidine (TEV-cleavable) (cleaved yes); made in house; host or cells: E. coli Rosetta (DE3)
T1 sequence (O14786 275-424 limits assumed): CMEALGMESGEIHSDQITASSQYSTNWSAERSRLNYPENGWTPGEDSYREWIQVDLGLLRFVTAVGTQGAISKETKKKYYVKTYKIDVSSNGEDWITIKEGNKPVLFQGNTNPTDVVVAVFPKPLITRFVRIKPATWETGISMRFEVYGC

T2: b1 domain of neuropilin‐1 (NRP1‐b1) (human, UniProt O14786 273-427)
T2 construct: neuropilin-1, human, b1 domain; also called NRP1‐b1 domain; NRP1 b1 domain; source: E. coli Rosetta (DE3), purified (HisTrap, TEV cleavage, Superdex 75, SP FF ion exchange)
T2 sequence: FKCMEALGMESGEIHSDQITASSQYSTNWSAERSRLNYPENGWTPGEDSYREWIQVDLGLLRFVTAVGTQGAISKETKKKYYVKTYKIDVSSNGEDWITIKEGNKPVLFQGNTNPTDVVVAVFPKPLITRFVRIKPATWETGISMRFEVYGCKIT

B1: MGC0122 (peptide)
peptide: Hpt-DRAATPHHRPQPR
modifications: reading uncertain; also: printed as Hpt‐DRAATPHHRPQPR
notes: VEGF-B186, human, the C-terminal stretch of the proteolytically processed form, ending in arginine; Only the C-terminal QPR is ordered in the crystal structure; also called VEGF‐B derived peptide MGC0122; source: synthetic peptide; bought: Peptide Protein Research (PeptideSynthetics), >95 % purity by HPLC
B2: MGC0123 (peptide)
chain: {6‑heptynoyl}-RCRRRSFLRCQGRGLELNPDTCRCRKLRR
modifications: disulfide (positions not given here); also: cyclised by disulphide, Cys pairing not given here

How the values were obtained:
[1] = target: T1, NRP1‐b1; experiment: SPR binding of peptides to immobilised NRP1-b1; conditions: for Receptor occupancy: immobilised NRP1-b1
Description: We then designed four additional peptides with added lipid chains (Figures 3 and 4). We investigated the effect of lipidation on the N‐terminus (MGC0171 and MGC0174) and on the side chain of a lysine in close proximity to the C‐terminus (MGC0172 and MGC0173) as shown (Figure 5). For the SPR analysis of the lipidated peptides we fitted data to a two‐state reaction model to account for the nonspecific binding of the palmitoyl side chains. Since the model assumes two binding events it provides two association (k a) and dissociation (k d) rates, and the overall equilibrium dissociation constant is calculated using the equation: KD=KD1(1+KD2), in which KD1 and KD2 are obtained as […]. The inverse of the dissociation rate corresponds to the residence time. […] The lipidated peptides were also tested for inhibition of VEGF‐A165 binding to NRP1 in a cell‐based assay (Figure 8).
Surface plasmon resonance: SPR measurements were performed using either Biacore T200 or Biacore 4000 at a constant temperature of 25 °C. All sensor chips, stock buffers, and immobilisation reagents were purchased from GE Healthcare/Cytvia and were prepared according to the manufacturer's instructions.
Chip preparation: PBS containing 0.05 % surfactant P20 was used as the running buffer during immobilisation. Proteins were immobilised onto a CM5 chip using random amine coupling following a standard procedure using the conditions specified in Table 2. A flow cell upstream of the treated flow cell was used as a reference which allowed removal of non‐specific binding to the chip.
Kinetic measurements of peptides: Peptides were injected over immobilized NRP1‐b1 for 60 s, followed by 120 or 180 s dissociation. The surface was regenerated with 1 M NaCl between injections. The SPR response curves were fit to a binding model to obtain association (ka ) and dissociation (kd ) rates which were then converted into equilibrium dissociation constant (KD ) and residence time. For a 1 : 1 binding model […] and for a two‐state binding model KD=K1(1+K2). Residence time was calculated as 1/kd .

[2] = target: T3, bt‐VEGF‐A165 binding to NRP1 in HUVEC cells (Homo sapiens, UniProt O14786); experiment: Cell based binding assay, inhibition of bt-VEGF-A165 binding to NRP1; conditions: for IC50: 4 °C, 2 h, streptavidin-horseradish peroxidase detection; for HS (of the inhibition curve of bt‐VEGF‐A165 binding to NRP1): HUVEC cells
T3 construct: expressed in transfected cells
Method: A) N‐terminal palmitoyl VEGF‐B167 derived peptide MGC0174. B) Lysine palmitoyl peptide MGC0173. C) N‐terminal palmitoyl VEGF‐A165 derived peptide MGC0171. D) Lysine VEGF‐A165 palmitoyl peptide MGC0172.
Cell based binding assay for bt‐VEGF binding to NRP1‐b1: A flat‐bottomed 96 well plate was coated with 100 μL 10 μg/mL Poly‐D‐lysine (110 μL in 10890 μL PBS) and incubated for 1 hour at R.T. DU145 cells were seeded at a concentration of 20,000 DU145 cells/well in DMEM with 10 % FBS and incubated for 4 hours. Cells were then infected with 0.3 μL per well of adenovirus expressing NRP1 (stock at 1×1012 vp/mL) and incubated for 40 hours. The media was removed followed by washing cells twice in 200 μL of PBS per well. The plate was placed on ice and 50 μL of binding medium was added per well for total binding. Next, 50 μL of 100‐fold excess (100×btVEGF‐A165) of unlabelled‐VEGF (diluted in binding medium) was added per well for non‐specific binding. Peptides (50 μL) at the indicated concentrations were diluted in binding medium and added to specified wells. bt‐VEGF (50 μL of 4 nM; diluted in binding medium) was added per well for both total and non‐specific binding and samples. The plate was incubated at 4 °C for 2 hours. The plate was then placed on ice and the medium was removed followed by gently washing the cells 3 times in 200 μL of PBS per well.
Streptavidin‐horseradish peroxidase (100 μL; dilute to the working concentration specified on the vial label using PBS+1 % BSA=1 : 200) was added to each well. The plate was sealed and incubated for 30 minutes at room temperature. Three more washes with 200 μL PBS were done. Then, 100 μL of substrate solution was added to each well (protected from light). Colour Reagent A and B were mixed together in equal volumes within 15 minutes of use. The plate was sealed and incubated for 20 minutes at room temperature. Stop solution (50 μL) was added to each well ensuring even mixing. The plate was read using Tecan Genios plate reader using a 450 nm cut‐off filter and also with a reference 595 nm cut‐off filter. Nonspecific binding was determined in the absence of NP‐1 coated on the microplate.

[3] = Peptide stability in mouse plasma; format: in vitro ADME; conditions: mouse plasma pH 7.4, 37 °C, LC-MS/MS, triplicate (n=1); for Stability in mouse plasma (in words): 10 μM, 0.24 % DMSO, 0, 5, 15, 30, 60, 120 min
Method: Figure 9 Stability of VEGF‐B167 lipidated peptides in mouse plasma determined by MSMS analysis. The stability of the peptides is shown relative to the control eucatropine. Samples were analysed in triplicate (n=1).
Peptide stability in mouse plasma: Mouse plasma stability tests were performed by Cyprotex. In brief, peptides were incubated with mouse plasma (adjusted for pH 7.4, 37 °C) to a final concentration of 10 μM and incubation volume of 500 μL (0.24 % DMSO). After the incubation period (0, 5, 15, 30, 60, and 120 min), the reactions were stopped by transferring 50 μL of incubate to 150 μL acetonitrile containing internal standard. Plasma proteins were precipitated out by centrifuging at 3,000 rpm for 45 min at 4 °C. The supernatant was diluted 1 : 1 with water and analysed by LC‐MS/MS.

[4] = target: T2, b1 domain of neuropilin‐1 (NRP1‐b1); experiment: SPR; NRP1-b1 immobilised on a CM5 chip by random amine coupling; peptides injected for 60 s, 120 or 180 s dissociation; 25 °C; regeneration with 1 M NaCl; kinetic fit, 1:1 model (MGC0122, MGC0123, MGC0124) or two-state model (MGC0171, MGC0172, MGC0173, MGC0174); conditions: both partners purified
[5] = SPR, immobilised NRP1-b1, 25 °C, two-state model, lipidated peptides, read-out: Second residence time calculated from two‐state model (converted)
[6] = read-out: Residence time (1/kd)
[7] = IC50, cell‐based activity (HUVECs), inhibition of bt‐VEGF‐A165 binding to NRP1, bt-VEGF-A165 4 nM

T3 sequence (O14786 22-923): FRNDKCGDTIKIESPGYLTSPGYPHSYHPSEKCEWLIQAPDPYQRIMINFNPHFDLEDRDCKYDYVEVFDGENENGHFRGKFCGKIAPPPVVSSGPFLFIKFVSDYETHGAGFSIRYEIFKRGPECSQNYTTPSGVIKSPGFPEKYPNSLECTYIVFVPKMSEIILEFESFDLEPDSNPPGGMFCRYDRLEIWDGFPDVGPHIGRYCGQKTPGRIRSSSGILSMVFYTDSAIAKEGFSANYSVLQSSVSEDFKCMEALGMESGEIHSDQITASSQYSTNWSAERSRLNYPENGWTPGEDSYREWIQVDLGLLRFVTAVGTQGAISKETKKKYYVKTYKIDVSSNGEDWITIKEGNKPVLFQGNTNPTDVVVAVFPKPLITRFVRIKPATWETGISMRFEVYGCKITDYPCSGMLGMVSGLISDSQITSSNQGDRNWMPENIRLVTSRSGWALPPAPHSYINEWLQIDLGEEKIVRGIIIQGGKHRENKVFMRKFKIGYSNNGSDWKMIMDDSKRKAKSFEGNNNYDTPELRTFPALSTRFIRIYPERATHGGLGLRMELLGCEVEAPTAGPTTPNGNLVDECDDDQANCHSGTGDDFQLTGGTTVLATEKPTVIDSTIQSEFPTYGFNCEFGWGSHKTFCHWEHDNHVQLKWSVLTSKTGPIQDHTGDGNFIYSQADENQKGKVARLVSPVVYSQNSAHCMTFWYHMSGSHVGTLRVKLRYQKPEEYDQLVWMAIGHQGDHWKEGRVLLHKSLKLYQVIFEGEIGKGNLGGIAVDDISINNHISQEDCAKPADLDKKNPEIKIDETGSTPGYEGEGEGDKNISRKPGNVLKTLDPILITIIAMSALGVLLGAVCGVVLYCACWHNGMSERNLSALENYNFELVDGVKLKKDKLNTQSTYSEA

Molecule	Kd [1] [µM]	Receptor occupancy ([1]; SPR) [%]	residence time [1, 5] [min]	residence time [1, 6] [min]	IC50 [2, 7]	HS (of the inhibition curve of bt‐VEGF‐A165 binding to NRP1) ([2]; bt-VEGF-A165 4 nM)	Stability in mouse plasma (in words) [3]	Kd [4] [µM]	also measured
CCCCCCCCCCCCCCCC(=O)N[C@@H](CCCNC(=N)N)C(=O)N[C@H]1CSSC[C@@H]2NC(=O)[C@H]([C@@H](C)O)NC(=O)[C@H](CC(=O)O)NC(=O)[C@@H]3CCCN3C(=O)[C@H](CC(N)=O)NC(=O)[C@H](CC(C)C)NC(=O)[C@H](CCC(=O)O)NC(=O)[C@H](CC(C)C)NC(=O)CNC(=O)[C@H](CCCNC(=N)N)NC(=O)CNC(=O)[C@H](CCC(N)=O)NC(=O)[C@H](CSSC[C@@H](C(=O)N[C@@H](CCCNC(=N)N)C(=O)N[C@@H](CCCCN)C(=O)N[C@@H](CC(C)C)C(=O)N[C@@H](CCCNC(=N)N)C(=O)N[C@@H](CCCNC(=N)N)C(=O)O)NC(=O)[C@H](CCCNC(=N)N)NC2=O)NC(=O)[C@H](CCCNC(=N)N)NC(=O)[C@H](CC(C)C)NC(=O)[C@H](Cc2ccccc2)NC(=O)[C@H](CO)NC(=O)[C@H](CCCNC(=N)N)NC(=O)[C@H](CCCNC(=N)N)NC(=O)[C@H](CCCNC(=N)N)NC1=O [MGC0174] (Palmitoyl-RCRRRSFLRCQGRGLELNPDTCRCRKLRR-OH; disulfide 2-22, 10-24)	0.33 ± 0.05	47±3	4.46	0.248	0.319 µM and 0.3 µM	1.9	quickly degraded to low levels after 15 min	–	–
CC1CC(OC(=O)C(O)c2ccccc2)CC(C)(C)N1C (centres unmarked) [eucatropine, reference compound]	–	–	–	–	–	–	degraded within literature parameters	–	–
CCCCCCCCCCCCCCCC(=O)N[C@@H](CO)C(=O)N[C@H]1CSSC[C@@H]2NC(=O)[C@H]([C@@H](C)O)NC(=O)[C@H](CCCNC(=N)N)NC(=O)[C@H](CCC(=O)O)NC(=O)[C@H](CC(N)=O)NC(=O)[C@H](CC(C)C)NC(=O)[C@H](CCC(=O)O)NC(=O)[C@H](CC(C)C)NC(=O)[C@H](CCC(N)=O)NC(=O)[C@H](CCCNC(=N)N)NC(=O)[C@H](C)NC(=O)[C@H](CCCCN)NC(=O)[C@H](CSSC[C@@H](C(=O)N[C@@H](CC(=O)O)C(=O)N[C@@H](CCCCN)C(=O)N3CCC[C@H]3C(=O)N[C@@H](CCCNC(=N)N)C(=O)N[C@@H](CCCNC(=N)N)C(=O)O)NC(=O)[C@H](CCCNC(=N)N)NC2=O)NC(=O)[C@H](CCCNC(=N)N)NC(=O)[C@H](CO)NC(=O)[C@H](CC(=O)O)NC(=O)[C@H]([C@@H](C)O)NC(=O)[C@H](CC(N)=O)NC(=O)[C@H](CCCCN)NC1=O [MGC0171] (Palmitoyl-SCKNTDSRCKARQLELNERTCRCDKPRR-OH; disulfide 2-21, 9-23)	–	–	1.58	–	–	1.7	–	–	residence time ([1]; SPR, immobilised NRP1-b1, 25 °C, 1:1 model, or first residence time of the two-state model, read-out: Residence time (1/kd) (converted)): 0.0883 min; Kd ([1]; SPR, peptide injected 60 s over NRP1-b1 immobilised on CM5 chip, 25 °C, 1:1 model for MGC0122/0123/0124, two-state model for lipidated peptides, read-out: KD, SPR binding to NRP1‐b1): 3.32 ± 0.16 µM; IC50 ([2]; bt-VEGF-A165 4 nM, read-out: IC50, cell‐based activity (HUVECs), inhibition of bt‐VEGF‐A165 binding to NRP1): 1.7 µM
CCCCCCCCCCCCCCCC(=O)NCCCC[C@H](NC(=O)[C@H](CCCNC(=N)N)NC(=O)[C@@H]1CSSC[C@@H]2NC(=O)[C@H](CCCNC(=N)N)NC(=O)[C@H](CC(C)C)NC(=O)[C@H](Cc3ccccc3)NC(=O)[C@H](CO)NC(=O)[C@H](CCCNC(=N)N)NC(=O)[C@H](CCCNC(=N)N)NC(=O)[C@H](CCCNC(=N)N)NC(=O)[C@@H](NC(=O)[C@H](CCCNC(=N)N)NC(C)=O)CSSC[C@H](NC(=O)[C@H]([C@@H](C)O)NC(=O)[C@H](CC(=O)O)NC(=O)[C@@H]3CCCN3C(=O)[C@H](CC(N)=O)NC(=O)[C@H](CC(C)C)NC(=O)[C@H](CCC(=O)O)NC(=O)[C@H](CC(C)C)NC(=O)CNC(=O)[C@H](CCCNC(=N)N)NC(=O)CNC(=O)[C@H](CCC(N)=O)NC2=O)C(=O)N[C@@H](CCCNC(=N)N)C(=O)N1)C(=O)N[C@@H](CC(C)C)C(=O)N[C@@H](CCCNC(=N)N)C(=O)N[C@@H](CCCNC(=N)N)C(=O)O [MGC0173] (Ac-RCRRRSFLRCQGRGLELNPDTCRCRK(Palmitoyl)LRR-OH; disulfide 2-22, 10-24)	0.13 ± 0.03	10±1	2.69	0.0767	2 µM	1.8	maintained much better levels throughout the course of the experiment	–	half-life at 10 μM ([3]; 0.24 % DMSO, 0-120 min): 51 min
B1	–	–	–	–	–	–	–	9.55 ± 0.17	–
B2	–	–	–	–	–	–	–	0.39 ± 0.09	–
